Test results as given in patent US6737383B1, “Herbicidal oxadiazolidines” (priority 1999, dated 2004).

What was measured:
wild oat = assay: Test E wild oat; type: in vivo, Avena fatua; conditions: Preemergence
winter wheat [1] = assay: Test E winter wheat; type: in vivo, Triticum aestivum; conditions: Preemergence
winter wheat [2] = assay: Test E winter wheat; type: in vivo, Triticum aestivum; conditions: Postemergence
Outline: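 Greenhouse-grown plants are treated (postemergence: 1- to 4-leaf stage, sandy loam/potting mix 60:40), then evaluated visually versus untreated controls some 21 to 28 days later.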

green foxtail = assay: Test E green foxtail; type: in vivo, Setaria viridis; conditions: Preemergence
Italian ryegrass = assay: Test E Italian ryegrass; type: in vivo, Lolium multiflorum; conditions: Preemergence
duck salad = assay: Test B flood test duck salad; type: in vivo, Heteranthera limosa
Outline: (§1)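 Plants were grown to the 2-leaf stage before treatment with test chemical, then held in a greenhouse for twelve to sixteen days. Injury was visually rated against untreated controls on a 0–10 scale, where 0 is no effect and 10 is complete control.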

crabgrass = assay: Test B pre/postemergence crabgrass; type: in vivo, Digitaria sanguinalis
Outline: (§2)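 Test chemicals in a non-phytotoxic solvent mixture with surfactant were sprayed preemergence onto planted seeds and postemergence onto plants 2 to 18 cm tall (1- to 4-leaf stage). After twelve to sixteen days in a greenhouse, injury was visually rated against untreated controls from 0 (no effect) to 10 (complete control).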

winter barley = assay: Test E winter barley; type: in vivo, Hordeum vulgare; conditions: Preemergence
blackgrass = assay: Test E blackgrass; type: in vivo, Alopecurus myosuroides; conditions: Preemergence
purple nutsedge = assay: Test B pre/postemergence purple nutsedge; type: in vivo, Cyperus rotundus
Outline: as §2

bamyardgrass = assay: Test B flood test barnyardgrass; type: in vivo, Echinochloa crus-galli
Outline: as §1

[3] = Rate 31 g/ha, 0 to 100 scale, 0 no effect, 100 complete control
[4] = Rate 62 g/ha, 0 to 100 scale, 0 no effect, 100 complete control
[5] = Rate 125 g/ha, 0 to 100 scale (0 no effect, 100 complete control)
[6] = Rate 250 g/ha, headed Pre-emergence (flood test species), scale 0 to 10 (0 no effect, 10 complete control)
[7] = Rate 500 g/ha, headed Pre-emergence (flood test species), scale 0 to 10 (0 no effect, 10 complete control)
[8] = Rate 1000 g/ha, Pre-emergence (as headed), scale 0 to 10
[9] = Postemergence, Rate 125 g/ha, scale of 0 to 10 where 0 is no effect and 10 is complete control
[10] = Postemergence, Rate 250 g/ha, scale 0 to 10, 0 no effect, 10 complete control
[11] = Preemergence, Rate 62 g/ha, scale 0 to 10 (0 no effect, 10 complete control)
[12] = Preemergence, Rate 125 g/ha, scale 0 to 10 (0 no effect, 10 complete control)
[13] = Preemergence, Rate 250 g/ha, scale of 0 to 10 where 0 is no effect and 10 is complete control
[14] = Preemergence, Rate 500 g/ha, scale 0 to 10 (0 no effect, 10 complete control)
[15] = Rate 62 g/ha, Postemergence, scale of 0 to 10 where 0 is no effect and 10 is complete control
[16] = Rate 500 g/ha, Postemergence, scale 0 to 10, 0 no effect, 10 complete control

**Q.** With CCn1c(=O)on(C(=O)N(c2ccc(F)cc2)C(C)C)c1=O [Compound 107] as the compound, how does the “Plant response rating, Wild oat” value (wild oat; [3]) read?
**A.** 20

**Q.** And the “Plant response rating, Wild oat” value (wild oat; [4])?
**A.** 50

**Q.** What about the “Plant response rating, Wild oat” value (wild oat; [5]) of the same compound?
**A.** 60

**Q.** And the “Plant response rating, Wheat (winter)” value (winter wheat [1]; [3])?
**A.** 0

**Q.** And the “Plant response rating, Wheat (winter)” value (winter wheat [1]; [4])?
**A.** 50

**Q.** What about the “Plant response rating, Wheat (winter)” value (winter wheat [1]; [5]) of the same compound?
**A.** 30

**Q.** What about the “Plant response rating, Wheat (winter)” value (winter wheat [1]; Rate 250 g/ha, 0 to 100 scale) of the same compound?
**A.** 40

**Q.** And the “Plant response rating, Wheat (winter)” value (winter wheat [2]; [3])?
**A.** 50

**Q.** And the “Plant response rating, Wheat (winter)” value (winter wheat [2]; Rate 62 g/ha, 0 to 100 scale)?
**A.** 40

**Q.** What about the “Plant response rating, Wheat (winter)” value (winter wheat [2]; Rate 125 g/ha, 0 to 100 scale) of the same compound?
**A.** 30

**Q.** What about the “Plant response rating, Wheat (winter)” value (winter wheat [2]; Rate 250 g/ha, 0 to 100 scale (0 no effect, 100 complete control)) of the same compound?
**A.** 0

**Q.** What about the “Plant response rating, Green foxtail” value (green foxtail; [3]) of the same compound?
**A.** 55

**Q.** What about the “Plant response rating, Green foxtail” value (green foxtail; [4]) of the same compound?
**A.** 80

**Q.** And the “Plant response rating, Green foxtail” value (green foxtail; [5])?
**A.** 100

**Q.** What about the “Plant response rating, Green foxtail” value (green foxtail; Rate 250 g/ha, 0 to 100 scale) of the same compound?
**A.** 95

**Q.** What about the “Plant response rating, I. Ryegrass” value (Italian ryegrass; [3]) of the same compound?
**A.** 40

**Q.** And the “Plant response rating, I. Ryegrass” value (Italian ryegrass; [4])?
**A.** 55

**Q.** What about the “Plant response rating, I. Ryegrass” value (Italian ryegrass; [5]) of the same compound?
**A.** 98

**Q.** What about the “Plant response rating, I. Ryegrass” value (Italian ryegrass; Rate 250 g/ha, 0 to 100 scale) of the same compound?
**A.** 95

**Q.** What about the “Ducksalad plant response rating” value (duck salad; [6]) of the same compound?
**A.** 0

**Q.** And the “Plant response rating, Ducksalad” value (duck salad; [7])?
**A.** 0

**Q.** And the “Ducksalad plant response rating” value (duck salad; [8])?
**A.** 0

**Q.** What about the “Ducksalad plant response rating” value (duck salad; Rate 2000 g/ha, Pre-emergence (as headed), scale 0 to 10) of the same compound?
**A.** 0

**Q.** And the “Crabgrass plant response rating” value (crabgrass; [9])?
**A.** 8

**Q.** And the “Crabgrass plant response rating” value (crabgrass; [10])?
**A.** 9

**Q.** And the “Crabgrass plant response rating” value (crabgrass; [11])?
**A.** 10

**Q.** What about the “Plant response rating, Crabgrass” value (crabgrass; [12]) of the same compound?
**A.** 10

**Q.** And the “Plant response rating, Crabgrass” value (crabgrass; [13])?
**A.** 10

**Q.** And the “Crabgrass plant response rating” value (crabgrass; [14])?
**A.** 10

**Q.** And the “Crabgrass plant response rating” value (crabgrass; [15])?
**A.** 8

**Q.** What about the “Crabgrass plant response rating” value (crabgrass; [16]) of the same compound?
**A.** 9

**Q.** What about the “Plant response rating, Barley (winter)” value (winter barley; [3]) of the same compound?
**A.** 10

**Q.** And the “Plant response rating, Barley (winter)” value (winter barley; [4])?
**A.** 20

**Q.** And the “Plant response rating, Barley (winter)” value (winter barley; [5])?
**A.** 20

**Q.** What about the “Plant response rating, Barley (winter)” value (winter barley; Rate 250 g/ha, 0 to 100 scale) of the same compound?
**A.** 15

**Q.** And the “Plant response rating, Blackgrass” value (blackgrass; [3])?
**A.** 30

**Q.** And the “Plant response rating, Blackgrass” value (blackgrass; [4])?
**A.** 60

**Q.** What about the “Plant response rating, Blackgrass” value (blackgrass; [5]) of the same compound?
**A.** 85

**Q.** What about the “Plant response rating, Blackgrass” value (blackgrass; Rate 250 g/ha, 0 to 100 scale) of the same compound?
**A.** 80

**Q.** And the “Nutsedge plant response rating” value (purple nutsedge; [9])?
**A.** 3

**Q.** And the “Nutsedge plant response rating” value (purple nutsedge; [10])?
**A.** 5

**Q.** What about the “Nutsedge plant response rating” value (purple nutsedge; [11]) of the same compound?
**A.** 0

**Q.** And the “Plant response rating, Nutsedge” value (purple nutsedge; [12])?
**A.** 0

**Q.** What about the “Plant response rating, Nutsedge” value (purple nutsedge; [13]) of the same compound?
**A.** 2

**Q.** And the “Nutsedge plant response rating” value (purple nutsedge; [14])?
**A.** 6

**Q.** What about the “Nutsedge plant response rating” value (purple nutsedge; [15]) of the same compound?
**A.** 3

**Q.** And the “Nutsedge plant response rating” value (purple nutsedge; [16])?
**A.** 6

**Q.** What about the “Barnyardgrass plant response rating” value (bamyardgrass; [6]) of the same compound?
**A.** 0

**Q.** What about the “Plant response rating, Barnyardgrass” value (bamyardgrass; [7]) of the same compound?
**A.** 0

**Q.** And the “Barnyardgrass plant response rating” value (bamyardgrass; [8])?
**A.** 0

**Q.** And the “Barnyardgrass plant response rating” value (bamyardgrass; Rate 2000 g/ha, Pre-emergence (as headed), scale 0 to 10, 0 no effect, 10 complete control)?
**A.** 0
